10 compounds from patent US9271905B2, “Process for preparing polyurea microcapsules” (Firmenich S.A., priority 2010, dated 2016) can be followed below.

Broadly, the logP is a log measure of how a compound divides between an organic and an aqueous phase.

SMILES strings stand for the structures.

One data set in a line: LogP of the perfume ingredients. It is filed as physicochemical. Conditions: perfume ingredients of Table 1a.
`CC1C(C)(C)C2=C(C(=O)CCC2)C1(C)C` (stereo not shown) [Cashmeran®, 1,2,3,5,6,7-Hexahydro-1,2,3,3-pentamethyl-4h-inden-4-one] returned a logP of 4.31.

For the compound `C=CC(C)CCCC(C)(C)O` (stereo not shown) [Dihydromyrcenol], the logP is on record as 3.47.

Compound `C=CC(C)CCCC(C)(C)OC(C)=O` (stereo not shown) [Dihydromyrcenyl acetate] returned a lipophilicity (logP) of 4.47.

The same data set, now with this note: perfume ingredients of Table 1a; read-out: LogP.
On to `CCCCCCCCCC(C)C=O` (stereo not shown) [2-Methylundecanal], for which the log partition coefficient (logP) amounted to 4.67.

Take `CC12CCC(CC1=O)C2(C)C` (stereo not shown) [Camphor]: the logP was 3.04.

Turning to `CC12CCC(CC1)C(C)(C)O2` [Eucalyptol], the lipophilicity (logP) turned out to be 3.13.

For the compound `CC(=O)C(C)=CC1C(C)=CCCC1(C)C` (stereo not shown) [Isoraldeine® 70, 3-Methyl-4-(2,6,6-trimethyl-2cyclohexen-1-yl)-3-buten-2-one], the logP was determined as 4.84.

In the case of `C=CC(C)(CCC=C(C)C)OC(C)=O` (stereo not shown) [Linalyl acetate], the logP is 4.39.

`CC(C)[C@@H]1CC[C@@H](C)CC1=O` [Menthone]: the logP came out at 2.87.

`CC(C)=CCCC1=CCC(C)(C=O)CC1` (stereo not shown) [Precyclemone B, 1-Methyl-4-(4-methyl-3-pentenyl)cyclohex-3-ene-1-carboxaldehyde]: the logP stood at 5.18.
